Results reported in US20170065579A1, “Sustained Release Low Dose Formulations and Uses Thereof” (priority 2015, published 2017).

Key:
[1] = naltrexone release from payloaded matrices (in vitro release); assay type: physicochemical; conditions: in contrast to the hydrochloride form
Experimental: The number of days of release are shown on the horizontal axis (X axis). The cumulative percentage of naltrexone release is shown on the vertical axis (Y axis). […] Release was measured under conditions of about 37 degrees Celsius. Before release was measured, steps had been taken to incorporate (payload) naltrexone into the matrices.
The number of days of release are shown on the horizontal axis (X axis). The cumulative percentage of naltrexone release is shown on the vertical axis (Y axis). Before release was measured, steps had been taken to incorporate (payload) naltrexone into the matrices.
Exemplary Formula #1—PBS Buffer Containing 0.01% Sodium Azide as Suspension and Release Medium: • 1. To a 1 L volumetric flask, add the contents of 1 package of ready-to-use powder for PBS • 2. Add sodium azide ([…]) • 3. Add Millipore water to the calibration mark • 4. Dissolve all solids • 5. Store at 8 degrees celsius (max)

[2] = in vivo, cited from earlier work
[3] = test system: opioid receptor; conditions: cited from earlier work
[4] = low dosages, about 3-5 mg/day; cited from earlier work

SMILES	release profiles [1]	oral bioavailability ([2]; po)	duration of effect [2]	potency relative to naloxone [3]	symptom severity [4]
O=C1CC[C@@]2(O)[C@H]3Cc4ccc(O)c5c4[C@@]2(CCN3CC2CC2)[C@H]1O5 [naltrexone base, naltrexone]	meet preferred target criteria				
O=C1CC[C@@]2(O)[C@H]3Cc4ccc(O)c5c4[C@@]2(CCN3CC2CC2)[C@H]1O5 [naltrexone]		good oral bioavailability	can last for a day	twice the potency	reduce symptom severity
